Read-outs that look alike come from different tables or passages of the source. Blank lines part the entries; values can stand above or below the compound they belong to. Ends that are not written are not given here.
Key:
DRB3*0101 = target: T1, DRB3*0101 (Homo sapiens, UniProt P01903+P79483); experiment: Class II peptide-binding assay DRB3*0101 (DR52a)
T1 construct: expressed in transfected cells; host or cells: transfected fibroblasts TR81.19

DRB5*0101 = target: T2, DRB5*0101 (Homo sapiens, UniProt P01903+Q30154); experiment: Class II peptide-binding assay DRB5*0101 (DR2w2a)
T2 construct: Epstein-Barr virus (EBV) transformed homozygous cell lines were used as sources of human HLA Class II molecules; endogenous in cells; host or cells: GM3107 (EBV-transformed homozygous B cell line)

DRB4*0101 = target: T3, DRB4*0101 (Homo sapiens, UniProt P01903+P13762, G164S); experiment: Class II peptide-binding assay DRB4*0101 (DRw53)
T3 construct: expressed in transfected cells; host or cells: transfected fibroblasts L257.6

DRB1*0802 = target: T4, DRB1*0802 (Homo sapiens, UniProt P01903+P01911, A100R/A103L/A169T/F76Y/H45Y/I96F/K41T/L162R/M171V/P40S/Q125H/Q178H/Q39Y/Q99D/R218S/R42G/S66Y/V115G/W38E); experiment: Class II peptide-binding assay DRB1*0802 (DR8w2)
T4 construct: Epstein-Barr virus (EBV) transformed homozygous cell lines were used as sources of human HLA Class II molecules; endogenous in cells; host or cells: OLL (EBV-transformed homozygous B cell line)

DRB1*1101 = target: T5, DRB1*1101 (Homo sapiens, UniProt P01903+P01911, A100R/A169T/A87E/I96F/K41T/L162R/M171V/P40S/Q125H/Q178H/Q39Y/Q99D/R42S/S66Y/T262R/V115G/W38E); experiment: Class II peptide-binding assay DRB1*1101 (DR5w11)
T5 construct: Epstein-Barr virus (EBV) transformed homozygous cell lines were used as sources of human HLA Class II molecules; endogenous in cells; host or cells: SWEIG (EBV-transformed homozygous B cell line)

DRB1*0101 = target: T6, DRB1*0101 (Homo sapiens, UniProt P01903+P01911, A100R/D57E/F55L/F60I/F76Y/I96L/L162R/M171V/P40L/Q125E/R42F/V115G/Y59C); experiment: Class II peptide-binding assay DRB1*0101 (DR1)
T6 construct: Epstein-Barr virus (EBV) transformed homozygous cell lines were used as sources of human HLA Class II molecules; endogenous in cells; host or cells: LG2 (EBV-transformed homozygous B cell line)

DRB1*1302 = target: T7, DRB1*1302 (Homo sapiens, UniProt P01903+P01911, A100E/A169T/K41T/L162R/M171V/P40S/Q125H/Q178H/Q39Y/Q99D/R42S/S66N/T262R/V115G/W38E/Y61H); experiment: Class II peptide-binding assay DRB1*1302 (DR6w19); settings: known HLA-DR and DQ restricted epitopes, Table 6
T7 construct: Epstein-Barr virus (EBV) transformed homozygous cell lines were used as sources of human HLA Class II molecules; endogenous in cells; host or cells: HO301 / H0301 (EBV-transformed homozygous B cell line)

DRB1*0301 = target: T8, DRB1*0301 (Homo sapiens, UniProt P01903+P01911, A100K/A102G/A103R/A169T/F55Y/I96L/K41T/L162R/M171V/P40S/Q125H/Q178H/Q39Y/R42S/S66N/T106N/T262R/W38E/Y61H); experiment: Class II peptide-binding assay DRB1*0301 (DR3); settings: known HLA-DR and DQ restricted epitopes, Table 6
T8 construct: Epstein-Barr virus (EBV) transformed homozygous cell lines were used as sources of human HLA Class II molecules; endogenous in cells; host or cells: MAT (EBV-transformed homozygous B cell line)

DRB1*0404 = target: T9, DRB1*0404 (Homo sapiens, UniProt P01903+P01911, A100R/A169T/F76Y/I96L/K127E/L162R/M171V/N62H/P40V/Q125Y/R42H/S133A/S149N/S66Y/V209L/W38E); experiment: Class II peptide-binding assay DRB1*0404 (DR4w14)
T9 construct: Epstein-Barr virus (EBV) transformed homozygous cell lines were used as sources of human HLA Class II molecules; endogenous in cells; host or cells: BIN40 (EBV-transformed homozygous B cell line)

DRB1*0401 = target: T10, DRB1*0401 (Homo sapiens, UniProt P01903+P01911, A100K/A169T/F76Y/I96L/K127E/L162R/M171V/N62H/P40V/Q125Y/R42H/S133A/S149N/S66Y/V115G/V209L/W38E); experiment: Class II peptide-binding assay DRB1*0401 (DR4w4); settings: known HLA-DR and DQ restricted epitopes, Table 6
T10 construct: Epstein-Barr virus (EBV) transformed homozygous cell lines were used as sources of human HLA Class II molecules; endogenous in cells; host or cells: PREISS (EBV-transformed homozygous B cell line)

DRB1*0701 = target: T11, DRB1*0701 (Homo sapiens, UniProt P01903+P01911, A100R/A102G/A103Q/D57E/D86V/E43K/F76Y/K127E/L162R/M171V/P40G/Q125H/Q99D/R33Q/R42Y/R54Q/S133A/S66F/T210M/V115G/Y107V/Y59L/Y89S); experiment: Class II peptide-binding assay DRB1*0701 (DR7); settings: known HLA-DR and DQ restricted epitopes, Table 6
T11 construct: Epstein-Barr virus (EBV) transformed homozygous cell lines were used as sources of human HLA Class II molecules; endogenous in cells; host or cells: PITOUT (EBV-transformed homozygous B cell line)

[1] = known HLA-DR and DQ restricted epitopes, Table 6

T5 sequence (P01903 26-254, other chains not shown): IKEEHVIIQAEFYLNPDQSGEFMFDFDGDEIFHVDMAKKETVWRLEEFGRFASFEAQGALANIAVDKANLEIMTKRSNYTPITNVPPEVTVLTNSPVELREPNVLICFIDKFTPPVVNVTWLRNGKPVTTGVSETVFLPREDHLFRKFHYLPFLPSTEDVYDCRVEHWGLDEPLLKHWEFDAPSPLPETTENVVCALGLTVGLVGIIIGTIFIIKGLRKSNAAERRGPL
T7 sequence (P01903 26-254, other chains not shown): as above
T8 sequence (P01903 26-254, other chains not shown): as above

IC50 (DRB5*0101; IFNb 15-mer peptides, Table 5D): 6760 nM
IC50 (DRB4*0101; IFNb 15-mer peptides, Table 5D): 1390 nM
Compound: NHLKTVLEEKLEKED [NHLKTVLEEKLEKED]

IC50 (DRB3*0101; [1]): > 20000 nM
IC50 (DRB1*0802; [1]): 13400 nM
IC50 (DRB5*0101; [1]): > 20000 nM
IC50 (DRB1*1302): 5.3 nM
IC50 (DRB1*0404; [1]): 143 nM
IC50 (DRB1*0701): 296 nM
Compound: CC[C@H](C)[C@H](NC(=O)[C@H](CC(N)=O)NC(=O)[C@@H](N)CCC(N)=O)C(=O)N[C@@H](CC(C)C)C(=O)N[C@@H](CC(C)C)C(=O)N[C@@H](CO)C(=O)N[C@@H](CC(N)=O)C(=O)N[C@@H](C)C(=O)N1CCC[C@H]1C(=O)N[C@@H](CC(C)C)C(=O)NCC(=O)N1CCC[C@H]1C(=O)N[C@@H](CCC(N)=O)C(=O)N[C@@H](Cc1ccccc1)C(=O)N1CCC[C@H]1C(=O)O

IC50 (DRB3*0101; IFNb 15-mer peptides, Table 5D): 6780 nM
Compound: LWQLNGRLEYCLKDR

IC50 (DRB1*1101): 10 nM
IC50 (DRB1*0404): 151 nM
Compound: CC(C)C[C@H](NC(=O)[C@H](Cc1ccccc1)NC(=O)[C@H](CC(N)=O)NC(=O)[C@H](CO)NC(=O)[C@H](Cc1ccc(O)cc1)NC(=O)[C@@H](NC(=O)[C@H](CCCNC(=N)N)NC(=O)[C@H](Cc1ccccc1)NC(=O)CNC(=O)[C@H](CCCCN)NC(=O)[C@H](CCCNC(=N)N)NC(=O)[C@H](Cc1ccccc1)NC(=O)[C@@H](NC(=O)[C@@H](N)CC(=O)O)[C@@H](C)O)C(C)C)C(=O)N[C@@H](CCCNC(=N)N)C(=O)O

Further lines, the compound ahead of its results:

Compound: CC(C)C[C@H](NC(=O)[C@@H](NC(=O)[C@H](CC(C)C)NC(=O)[C@@H](NC(=O)[C@H](CCCCN)NC(=O)[C@H](Cc1ccc(O)cc1)NC(=O)CN)C(C)C)C(C)C)C(=O)N[C@@H](CC(N)=O)C(=O)N1CCC[C@H]1C(=O)N[C@@H](CO)C(=O)N[C@H](C(=O)N[C@@H](C)C(=O)N[C@@H](C)C(=O)N[C@H](C(=O)O)[C@@H](C)O)C(C)C
IC50 (DRB3*0101): > 20000 nM

Compound: YKTIAYDEEARR
IC50 (DRB3*0101): > 20000 nM
IC50 (DRB5*0101): > 20000 nM
IC50 (DRB4*0101): > 20000 nM

Compound: FNNFTVSFWLRVPKVSASHLEQY
IC50 (DRB3*0101): 2820 nM
IC50 (DRB1*0802): 581 nM
IC50 (DRB5*0101): 2860 nM
IC50 (DRB4*0101): 1680 nM
IC50 (DRB1*1101; [1]): 8.3 nM
IC50 (DRB1*0101): 417 nM
IC50 (DRB1*1302): 6370 nM
IC50 (DRB1*0301): > 20000 nM
IC50 (DRB1*0404; [1]): 4540 nM
IC50 (DRB1*0401): 93 nM
IC50 (DRB1*0701): 57 nM

Compound: LLYCFRKDMDKVETF
IC50 (DRB3*0101; inhibition of radiolabeled probe binding, — read as no appreciable binding): 6940 nM
